Measurements reported in patent US12290521B2, “Methods and materials for identifying and treating BET inhibitor-resistant cancers” (Mayo Foundation for Medical Education and Research, priority 2018, dated 2025).
Residues, ends and D or L forms follow the SMILES beside them. *: point of attachment. Cbz = O=C(OCc1ccccc1)*

Assays:
BRD2/3/4 = assay: Western blot and RT-qPCR of BRD2/3/4 in LNCaP cells; type: cell-based; settings: 8 hours, MLN4924 200 nM, Bortezomib 200 nM, MG132 20 μM
Method: (§1) Cell lysates or immunoprecipitates were subjected to SDS-PAGE, and proteins were transferred to nitrocellulose membranes (GE Healthcare Sciences). The membranes were blocked in Tris-buffered saline (TBS, pH 7.4) containing 5% non-fat milk and 0.1% Tween-20, washed twice in TBS containing 0.1% Tween-20, and incubated with primary antibody overnight at 4° C., followed by secondary antibody for 1 hour at room temperature. The proteins of interest were visualized using ECL chemiluminescence system (Santa Cruz Biotechnology). Densitometry analysis of protein bands was analyzed on the Gel-Pro Analyzer software.
(§2) Total RNA was isolated from transiently transfected cells using the Trizol reagent (Thermo Fisher Scientific), and cDNA was reverse-transcribed using the Superscript RT kit (TOYOBO, Japan) according to the manufacturer's instructions. PCR amplification was performed using the SYBR Green PCR master mix Kit (TOYOBO, Japan). All quantization was normalized to the level of endogenous control GAPDH. The primer sequences for the SYBR green qPCR used were as follows: BRD2-F: 5′-[…]-3′ (SEQ ID NO:10); BRD2-R: 5′-[…]-3′ (SEQ ID NO:11); BRD3-F: 5′-[…]-3′ (SEQ ID NO:12); BRD3-R: 5′-[…]-[…]-3′ (SEQ ID NO:13); BRD4-F: 5′-[…]-GAG-3′ (SEQ ID NO:14); BRD4-F: 5′-[…]-3′ (SEQ ID NO: 15); RAC1-F: 5′-[…]-3′ (SEQ ID NO:16); RAC1-R: 5′-[…]-3′ (SEQ ID NO:17); FDFT1-F: 5′-ACTAT-[…]-3′ (SEQ ID NO:18); FDFT1-R: 5′-[…]-[…]-3′ (SEQ ID NO:19); DHCR24-F: 5′-[…]-GAGC-3′ (SEQ ID NO:20); DHCR24-R: 5′-[…]-3′(SEQ ID NO:21); DHCR7-F: 5′-[…]-3′ (SEQ ID NO: 22); DHCR7-R: 5′-[…]-3′ (SEQ ID NO:23); MVD-F: 5′-[…]-3′ (SEQ ID NO:24); MVD-R: 5′-CACAC-[…]-3′ (SEQ ID NO:25); PSA-F: 5′-[…]-[…]-3′ (SEQ ID NO:26); PSA-R: 5′-[…]-3′ (SEQ ID NO:27); TMPRSS2-F: 5′-[…]-3′ (SEQ ID NO: 28); TMPRSS2-R: 5′-[…]-3′ (SEQ ID NO:29); MYC-F: 5′-[…]-3′ (SEQ ID NO:30); MYC-R: 5′-CTTGT-[…]-3′ (SEQ ID NO:31); AR-F: 5′-[…]-TCACC-3′ (SEQ ID NO:32); AR-R: 5′-[…]-3′ (SEQ ID NO: 33); GAPDH-F: 5′-[…]-3′ (SEQ ID NO:34); and GAPDH-R: 5′-[…]-3′ (SEQ ID NO:35).

C4-2 cells [1] = assay: Cell proliferation assay (MTS) and trypan blue assay; type: cell-based, human; settings: SPOP-F133V C4-2 cells; GDC-0068 0.2 μM with JQ1 0.25 μM, 5 days
Method: CellTiter 96® AQueous One Solution Cell Proliferation Assay (MTS) (Promega) was used to measure cell growth according to the manufacturer's instructions. Briefly, cells were plated in 96-well plates at a density of 2,000 cells per well. At the indicated times, 20 μL of Cell Titer 96R Aqueous One Solution Reagent was added to medium. After incubating for 1 hour at 37° C. in the cell incubator, cell growth was measured in a microplate reader at 490 nm.
Trypan blue assay was performed to measure cell growth according to the manufacturer's instructions. Briefly, cells were plated in 6-well plates at a density of about 5×10^4 to about 1×10^5 cells per well. At the indicated time points, cells were trypsinized and suspended in 1 mL 1×PBS. 100 μL cells and 100 μL trypan blue solution (Sigma-Aldrich) were mixed, and the number of viable cells was measured using the Bio-Rad automated cell counter.
Cell proliferation was measured by using the MTS assay (Promega). Prostate cancer cells (2,000 per well) were seeded in 96-well plates with 100 μL of culture medium. Each well was added with 20 μL of CellTiter 96R AQueous One Solution Reagent (Promega) and absorbance was measured in a microplate reader at 490 nm.

C4-2 xenograft tumors = assay: Prostate cancer xenografts in NSG mice; type: in vivo; settings: SPOP-F133V C4-2 xenografts; GDC-0068 100 mg/kg with JQ1 50 mg/kg, 5 days a week, day 21
Method: 6-week-old NOD-SCID IL-2-receptor gamma null (NSG) mice were generated and randomly divided into different experimental groups as indicated. All mice were housed in standard conditions with a 12-hour light/dark cycle and access to food and water ad libitum. For BRD2/3/4 knockdown studies, C4-2 cells (5×10^6), infected with lentivirus expressing empty vector (EV) or HA-SPOP-F133V mutant in combination with control shRNA or BRD2/3/4-specific shRNA, were mixed with Matrigel (in 100 μL 1×PBS plus 100 μL Matrigel (BD Biosciences)) and injected s.c. into the right flank of mice. After xenografts reached the size of about 100 mm^3, vehicle (10% beta cyclodextrin) or JQ1 (Sigma-Aldrich) at 50 mg/kg body weight was administered by i.p. injection 5 days a week. For studies with tumors treated with JQ1 and AKT inhibitor GDC-0068, C4-2 cells (5×10^6) infected with lentivirus expressing empty vector (EV) or HA-SPOP-F133V mutant were mixed with Matrigel (in 100 μL 1×PBS plus 100 μL Matrigel (BD Biosciences)) and injected s.c. into the right flank of mice. […] Growth in tumor volume was measured in a blinded fashion using digital caliper, and tumor volumes were estimated using the formula (L×W2)/2, where L is length of tumor and W is width. The volumes of tumors were compared, and P values were determined by a two-tailed Student's t test. […]

C4-2 cells [2] = assay: Western blot and RT-qPCR of protein and mRNA expression in C4-2 cells; type: cell-based, human; settings: 24 hours
Method: as §1, §2
(§3) Cells were harvested and lysed by IP buffer (50 mM Tris-HCl, pH 7.4, 150 mM NaCl, 1% Triton X-100, 1% sodium deoxycholate and 1% protease inhibitor cocktails) on ice for more than 15 minutes. Cell lysate was centrifuged for 15 minutes at 13,000 rpm at 4° C., and the supernatant was quantified by BCA protein quantification assay. Equal amounts of protein sample were added into 4× sample buffer and boiled for 5 minutes. The sample was subjected to SDS-PAGE analysis and transferred to nitrocellulose membrane. The membrane was blocked by 5% milk for 1 hour at room temperature and incubated with primary antibody at 4° C. overnight. The next day, the membrane was washed three times with 1×TBST and incubated with horseradish peroxidase-conjugated secondary antibodies for 1 hour at room temperature. The protein bands were visualized by SuperSignal West Pico Stable Peroxide Solution (Thermo Fisher Scientific).
Total RNA was isolated using TRIzol reagent (Thermo Fisher Scientific). The NanoDrop 2000 spectrophotometer (Thermo Fisher Scientific) was used to assess RNA yield and quality. RNA was reversely transcribed using Superscript II reverse transcriptase (Thermo Fisher Scientific) following manufacturer's instructions. Quantitative real-time PCR was performed by mixing cDNA, gene-specific primers and IQ SYRB Green Supermix and detected by iCycler QTX detection system (Bio-Rad). The 2-ΔCt method was used to quantitate fold changes by normalizing to GAPDH.

solid tumors = settings: patients with solid tumors; cited from earlier work
SPOP and BRD2/3/4 = assay: Western blot, co-IP and in vivo ubiquitination assay in 293T cells; type: cell-based, human; settings: MG132 20 μM, 8 hours
Method: To immunoprecipitate the ectopically expressed FLAG-tagged proteins, transfected cells were lysed 24 hours post-transfection in BC100 buffer. The whole-cell lysates were immunoprecipitated with the monoclonal anti-FLAG antibody-conjugated M2 agarose beads (Sigma-Aldrich) at 4° C. overnight. After three washes with lysis buffer, followed by two washes with BC100 buffer, the bound proteins were eluted using FLAG-Peptide (Sigma-Aldrich) prepared in BC100 for 3 hours at 4° C. The eluted protein sample was resolved by SDS-PAGE. To immunoprecipitate the endogenous proteins, cells were lysed with 1× cell lysis buffer (Cell Signaling Technology), and the lysate was centrifuged. The supernatant was precleared with protein A/G beads (Sigma-Aldrich) and incubated with the indicated antibody and protein A/G beads at 4° C. overnight. Beads were washed five times with lysis buffer and resuspended in sample buffer and analyzed by SDS-PAGE.
as §1
For the in vivo ubiquitination assay, C4-2 cells were transfected with plasmids for HA-Ub, FLAG-BRD4, and other indicated proteins. C ells were treated with 20 μM MG132 for 8 hours before being harvested and lysed with lysis buffer (50 mM Tris-HCl, pH 7.5, 150 mM NaCl, 1% NP40, 0.5% sodium deoxycholate, 1× protease inhibitor cocktail (PIC)). The lysate was subjected to co-immunoprecipitation using anti-FLAG-conjugated agarose beads as described in the Co-IP assay.

BRD4 [3] = assay: Western blot of BRD4 protein, ubiquitination and half-life in DU145 cells; type: cell-based, human
Method: Co-Immunoprecipitation (Co-IP) Cells were harvested and lysed by IP buffer (50 mM Tris-HCl, pH 7.4, 150 mM NaCl, 1% Triton X-100, 1% sodium deoxycholate and 1% protease inhibitor cocktails) on ice for more than 15 minutes. Cell lysate was centrifuged for 15 minutes at 13,000 rpm at 4° C., and the supernatant was incubated with primary antibodies and protein A/G agarose beads (Thermo Fisher Scientific) with rotating at 4° C. overnight. The next day, the pellet was washed at least six times with 1×IP buffer on ice, and then subjected to western blotting analysis. Western Blotting
as §3

BRD4 [4] = assay: Western blot of BRD4 protein in PC-3 cells; type: cell-based, human; settings: MG132, 8 h
Method: as §3

[5] = DU145 cells, PD0332991 2 μM, 24 hours
[6] = DU145 cells, PD0332991 with JQ1, 24 hours

## CC(C)C[C@H](NC(=O)[C@H](Cc1ccccc1)NC(=O)c1cnccn1)B(O)O [Bortezomib]
BRD2/3/4
  BRD2/3/4 protein level: increased

## CC(C)NC[C@@H](C(=O)N1CCN(c2ncnc3c2[C@H](C)C[C@H]3O)CC1)c1ccc(Cl)cc1 [GDC-0068]
C4-2 cells [1]
  SPOP mutation-conferred resistance to BET inhibitor, cells in culture: completely overcame
C4-2 xenograft tumors
  SPOP mutation-conferred resistance to BET inhibitor, tumors in mice: completely overcame
C4-2 cells [2]; SPOP-F133V C4-2 cells, GDC-0068 1 μM, Western blot
  SPOP mutation-induced activation of AKT downstream pathways: abolished
Solid tumors
  antitumor efficacy: effective antitumor efficacy

## CC(C)C[C@@H](C=O)NC(=O)[C@H](CC(C)C)NC(=O)[C@H](CC(C)C)NC(=O)OCc1ccccc1 [MG132] (Cbz-Leu-Leu-Leu-aldehyde)
BRD2/3/4
  BRD2/3/4 protein level: increased
SPOP and BRD2/3/4
  decrease of BRD2/3/4 proteins by wild-type SPOP expression: completely reversed
BRD4 [3]; DU145 cells, 24 hours, co-treatment with MG132
  PD0332991-induced decrease of BRD4 protein: completely impeded
BRD4 [3]; SPOP F133V-expressing DU145 cells, MG132, 8 hours
  decrease of BRD4 protein levels by DUB3 knockdown: blocked
BRD4 [4]
  downregulation of BRD4 proteins caused by DUB3 knockdown: reversed

## NS(=O)(=O)OC[C@@H]1C[C@@H](n2ccc3c(N[C@H]4CCc5ccccc54)ncnc32)C[C@@H]1O [MLN4924]
BRD2/3/4
  BRD2/3/4 protein level: accumulation

## CC(=O)c1c(C)c2cnc(Nc3ccc(N4CCNCC4)cn3)nc2n(C2CCCC2)c1=O [PD0332991, 6-acetyl-8-cyclopentyl-5-methyl-2-[(5-piperazin-1-ylpyridin-2-yl)amino]pyrido[2,3-d]pyrimidin-7-one]
BRD4 [3]; DU145 cells, DUB3 shRNA, PD0332991 2 μM, 24 hours
  BRD4 protein expression in DUB3 knockdown cells: little or no further reduction
BRD4 [3]; [5]
  BRD4 polyubiquitination: increased
  DUB3-induced upregulation of BRD4 protein: completely blocked
  DUB3-mediated deubiquitination of BRD4: reversed
BRD4 [3]; DU145 cells, PD0332991 2 μM, time-dependent
  BRD4 protein: decreased
BRD4 [3]; [6]
  JQ1-induced inhibition of BRD4 polyubiquitination: almost completely reversed
  JQ1-induced upregulation of BRD4 protein: almost completely abolished

## CC(/C=C/C(=O)NO)=C\[C@@H](C)C(=O)c1ccc(N(C)C)cc1 [trichostatin A]
C4-2 cells [2]; C4-2 cells, TSA 1 μM
  DUB3 protein and mRNA expression: increased
